Measured values published in patent US12213984B2, “Immunoregulatory agent” (KYUSHU UNIVERSITY, NATIONAL UNIVERSITY CORPORATION, priority 2015, dated 2025).

Tests used:
[1] = system: neutrophils isolated from the mouse bone marrow; assay: neutrophil migration assay 1 (EZ-TAXIScan, fMLP gradient, pretreated cells); type: cell-based; details: pretreated 1 hour, fMLP gradient 0 to 10 μM
Experimental: The influence of cholesterol 3-sulfate on a migration speed of neutrophils was examined. More specifically, in the presence of cholesterol 3-sulfate at a predetermined concentration or in the presence of DMSO alone (vehicle control), neutrophils isolated from the mouse bone marrow were incubated for 1 hour at room temperature in 20 mM HEPES-NaOH (pH 7.3)-0.1% BSA-containing RPMI-1640 (Taxiscan medium). The concentration of DMSO was adjusted such that the final concentration of DMSO became 0.2% in all samples.
Then, the pre-treated cells were loaded on wells of one side of the chamber of EZ-TAXIScan (Effector Cell Institute, Inc). After 1 μL of fMLP in a Taxiscan medium was added at a concentration of 10 μM to wells of the other side 260 μm distant from the above wells, neutrophils were allowed to migrate in the presence of a fMLP gradient (0 to 10 μM). Phase-contrast micrographs were obtained for 20 minutes at an interval of 30 seconds, and the trace and speed of neutrophils were analyzed by using manual tracking of the Image J program and a chemotaxis and migration tool.

[2] = system: T cells (mouse spleen cells); assay: lymphocyte migration assay using transwell (CCL21); type: cell-based; details: CCL21 300 ng/mL
Experimental: The influence of cholesterol 3-sulfate on the migration of T cells was examined. As a control, an experiment using T cells derived from a DOCK2 knockout mouse was also performed. More specifically, first, mouse spleen cells (1×10^7 cells/mL) were cultured for 1 hour at 37° C. in 0.5% BSA-containing RPMI-1640 (transwell medium) in the presence of cholesterol 3-sulfate at a predetermined concentration or in the presence of DMSO alone (control). The concentration of DMSO was adjusted such that the final concentration of DMSO became 0.2% in all samples. Then, a transwell medium containing chemokine CCL21 (300 ng/mL) and cholesterol 3-sulfate at a predetermined concentration was added to a 24-well plate, and then a transwell (with 5 μm pores, Corning) was set in the well so as to load the pre-cultured cells (1×10^6 cells/100 μL). Subsequently, the cells were incubated for 2 hours at 37° C., and the cells that moved to the lower chamber were collected and stained with PE-labeled anti Thy1.2-antibody (“53-2-1” model, BD Pharmingen). By dividing the number of Thy1.2-positive cells (T cells) in the lower chamber by the number of Thy1.2-positive cells (T cells) put into the transwell, the proportion of T cells having moved (migration of T cells (%)) was calculated. More specifically, first, mouse spleen cells (1×10^7 cells/mL) were cultured for 1 hour at 37° C. in 0.5% BSA-containing RPMI-1640 (transwell medium) in the presence of various steroid compounds at the concentration of 12.5 μM or in the presence of DMSO alone (control). The concentration of DMSO was adjusted such that the final concentration of DMSO became 0.2% in all samples. Then, by performing the transwell assay as described above, the effects of various steroid compounds on the migratory responses of T cells to CCL21 (300 ng/mL) were examined by comparison.

[3] = target: T1, binding of the DHR-2 domain of DOCK2 to Rac (Homo sapiens, UniProt Q92608); assay: pull-down assay using GST-Rac beads, binding of DOCK2 DHR-2 to Rac; details: 150 μM
T1 construct: 1 μg of a protein composed of the lobe B and the lobe C of the DHR-2 domain of DOCK2; made in house; host or cells: E. coli Arctic express DE3 (DOCK2 fragment); E. coli BL21 DE3 (GST-Rac)
T1 sequence (Q92608 1196-1622): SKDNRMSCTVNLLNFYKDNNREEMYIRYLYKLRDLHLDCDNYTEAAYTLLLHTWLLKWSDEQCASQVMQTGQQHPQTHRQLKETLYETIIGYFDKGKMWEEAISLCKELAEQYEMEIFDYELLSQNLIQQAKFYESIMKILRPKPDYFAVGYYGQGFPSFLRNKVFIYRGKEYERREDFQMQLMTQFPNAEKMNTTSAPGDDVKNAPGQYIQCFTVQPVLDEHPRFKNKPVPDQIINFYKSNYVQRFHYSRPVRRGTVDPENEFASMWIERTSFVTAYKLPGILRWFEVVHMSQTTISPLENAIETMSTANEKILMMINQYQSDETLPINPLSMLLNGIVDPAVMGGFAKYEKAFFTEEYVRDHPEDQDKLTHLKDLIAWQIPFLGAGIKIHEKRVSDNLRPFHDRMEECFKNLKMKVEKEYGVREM

[4] = system: inflammatory cells infiltrating into the anterior chamber of eye; assay: UV-induced photokeratitis in Sult2B1b gene knockout mice, eye drops; type: in vivo, mouse; details: eye drops before and after UV irradiation
Source text: As a result of analyzing UV-induced photokeratitis in Sult2B1b gene heterozygous mice (+/−) and Sult2B1b gene knockout mice (−/−), atrophy of the corneal epithelial layer was comparably observed in both mice. Therefore, the eyeball section of each of the mice was subjected to hematoxylin-eosin (HE) staining and observed using an optical microscope. Thereafter, cholesterol 3-sulfate was applied to the eyes of the Sult2B1b gene knockout mouse (−/−) before and after UV irradiation, and the total number of inflammatory cells infiltrating the anterior chamber of eye was counted. As a control, mouse for whom only a vehicle was applied to its eyes was used.

[5] = system: inflammatory cells infiltrating into the conjunctiva; assay: ragweed pollen-induced conjunctivitis model in Sult2B1b gene knockout mice, application to the eyes; type: in vivo, mouse; details: applied into the eyes before and after topical challenge
Experimental: An examination was performed on conjunctivitis models induced by sensitizing Sult2B1b gene hetero-type mice (+/−) and Sult2B1b gene knockout mice (−/−) with ragweed pollen and topically challenged with the same antigen at 10 and 12 days later. The eyeball section of each category of the mice was subjected to hematoxylin-eosin (HE) staining and observed using an optical microscope. Thereafter, the Sult2B1b gene knockout mice (−/−) were exposed to ragweed pollen, and cholesterol 3-sulfate was applied into the eyes of the mice before and after the topical challenge with ragweed pollen. […] As a control, a mouse for whom only a vehicle was applied into its eyes was used.

[6] = system: neutrophils derived from the mouse bone marrow; assay: neutrophil migration assay 2 (EZ-TAXIScan, compound added to the fMLP source); type: cell-based; details: 150 μM added to well with 3 μM fMLP, no pretreatment
Experimental: An examination was performed about the influence of cholesterol 3-sulfate on the migration speed of neutrophils when the cells and the chemical migration factor (fMLP) are added to the same well without pretreating the cells. […] Phase-contrast micrographs were obtained for 40 minutes at an interval of 30 seconds and analyzed by the same method as described above. (a) to (c) of FIG. 12 are graphs and photographs showing the experiment results.

[7] = target: T2, protein composed of the lobe B and the lobe C of the DHR-2 domain of DOCK2 (Homo sapiens, UniProt Q92608); assay: ELISA binding of steroid compounds to DHR-2 domain of DOCK2; details: steroid immobilized at 100 μg/ml, protein 2 μg/mL
T2 construct: the HIS-SUMO tagged protein composed of the lobe B and the lobe C of the DHR-2 domain of DOCK2; made in house; host or cells: E. coli Arctic express DE3 (pET28a)
T2 sequence (Q92608 1196-1622): T1 sequence (Q92608 1196-1622)
Experimental: First, various steroid compounds prepared at 100 μg/ml by using 100% methanol were added in an amount of 50 μL to a 96-well plate for ELISA (trade name “Immulon 4HBX”, Thermo Scientific) and immobilized for 1 hour in a clean bench by air drying. Subsequently, 5% bovine serum albumin (BSA) diluted with TBS (20 mM Tris-HCl-150 mM NaCl, pH 7.5) was added thereto in an amount of 180 μL, the steroid compounds were incubated for 6 hours at 4° C., and the wells were blocked. Thereafter, each of the wells was rinsed three times with 180 μL of PBS-0.01% Tween-20. […] Then, each of the wells was rinsed three times with 180 μL of PBS-0.01% Tween-20. Subsequently, horseradish peroxidase (HRP)-labeled histidine probe (Thermo Scientific) diluted 5,000× was added in an amount of 100 μL to each well, and allowed to incubate for 1.5 hours at room temperature. Thereafter, each of the wells was rinsed three times with 180 μL of PBS-0.01% Tween-20, a 3,3′,5,5′-tetramethyl benzidine (TMB) solution (Thermo Scientific) as an HRP chromogenic substrate was added in an amount of 100 μL to each well so as to initiate a chromogenic reaction, and a stop solution (0.16 M sulfuric acid, Thermo Scientific) was added in an amount of 100 μL to each well so as to stop the reaction. Then, the absorbance at a wavelength of 450 nm was measured.

SMILES: CC(C)CCC[C@@H](C)[C@H]1CC[C@H]2[C@@H]3CC=C4C[C@@H](OS(=O)(=O)O)CC[C@]4(C)[C@H]3CC[C@]12C [C3S, cholesterol 3-sulfate]
- migration of neutrophils (migration speed) in response to fMLP [1]: markedly inhibited
- migration of T cells in response to CCL21 ([2]; 6.25 μM): inhibited to the level of T cells derived from DOCK2 knockout mouse
- migration of T cells in response to CCL21 ([2]; 12.5 μM, Experimental Example 6): specifically inhibits the migration of T cells
- migration of T cells in response to CCL21 ([2]; predetermined concentrations, Experimental Example 5): markedly inhibited
- inhibition of binding of DOCK2 DHR-2 to GST-Rac (Western blotting) [3]: specifically inhibits the binding of DHR-2 to Rac
- UV irradiation-induced infiltration of inflammatory cells into the anterior chamber of eye [4]: inhibited
- infiltration of inflammatory cells into the conjunctiva in response to ragweed pollen [5]: further inhibited
- migration of neutrophils towards fMLP source containing the compound [6]: rapidly stop
- binding to the protein composed of lobe B and lobe C of the DHR-2 domain of DOCK2 (ELISA, absorbance 450 nm) [7]: specifically binds
